Test results reported in patent US5047402A, “Cyclic amides as medicaments” (ICI Americas Inc., priority 1989, dated 1991).

Target: T1, LTD4 /E4 receptors (Cavia porcellus, UniProt Q2NNR5)
T1 construct: membrane fractions, containing the LTD4 /E4 receptors, are prepared from guinea-pig lung parenchyma; from tissue; host or cells: guinea-pig lung parenchyma membrane fractions
T1 sequence (Q2NNR5 1-340): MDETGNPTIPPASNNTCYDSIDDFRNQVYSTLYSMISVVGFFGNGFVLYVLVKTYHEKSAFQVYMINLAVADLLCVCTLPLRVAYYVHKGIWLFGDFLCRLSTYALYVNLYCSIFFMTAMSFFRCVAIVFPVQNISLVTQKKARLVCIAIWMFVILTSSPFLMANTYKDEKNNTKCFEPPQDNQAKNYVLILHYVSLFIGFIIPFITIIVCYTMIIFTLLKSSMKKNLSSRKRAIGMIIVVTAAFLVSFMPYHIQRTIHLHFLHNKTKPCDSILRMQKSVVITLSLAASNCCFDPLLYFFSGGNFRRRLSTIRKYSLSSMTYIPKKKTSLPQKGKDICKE
Assay: receptor-ligand binding assay with 3H-LTD4 on guinea-pig lung parenchyma membrane fractions
Conditions: 1nM 3H-LTD4, 30 minutes at 22° C., Ki calculated from IC50 by the Cheng-Prusoff equation
Protocol: According to this procedure, membrane fractions, containing the LTD4 /E4 receptors, are prepared from guinea-pig lung parenchyma and incubated for 30 minutes at 22° C. with 1nM ^3 H-LTD4 in the absence or presence of tested antagonist. Specific binding, determined under conditions that prevent enzymatic metabolism of ^3 H-LTD4, is the net result of total ^3 H-LTD4 binding minus nonspecific binding determined in the presence of 1-2000 fold excess unlabelled LTD^4. Each assay is done in duplicate and results (Ki values) are typically a mean of several such determinations in individual receptor batches.
The % inhibition by a tested antagonist, relative to control binding (vehicle alone), is expressed as a fraction of log[antagonist] concentration (in molar units) and the half-maximal inhibition (IC50) determined by computerized non-linear least-square analysis. The binding constant (Ki) is then calculated from IC50 by the Cheng-Prusoff equation: [formula] where [L] is ^3 H-LTD4 concentraton and Kd is the affinity constant of LTD4 to this receptor, determined separately for each batch. (Biochem. Pharmacol. 22: 3099-3108, 1973).

Ki: 1 nM
Structure (SMILES): CCCN1CCC(Cc2ccc3c(c2)c(Cc2ccc(C(=O)NS(=O)(=O)c4ccccc4C)cc2OC)cn3CCC)C1=O (stereo not shown) [Example 1, 3-Methoxy-N-(2-methylphenylsulfonyl)-4-[1-propyl-5-(1-propyl-2-oxopyrrolidin-3-ylmethyl)indol-3-ylmethyl]benzamide]
